Test results taken from US9598416B2, “Substituted benzothienyl-pyrrolotriazines and uses thereof in the treatment cancer” (Bayer Intellectual Property GmbH, priority 2011, dated 2017).
pIC50: −log10 of the molar value. Counter-ions that a name gives are not always drawn. Like-named read-outs stand apart in the source and are kept apart here.

Assays:
human FGFR-3 = human FGFR-3 (Homo sapiens (Human), UniProt P22607); test: FGFR-3 kinase assay (TR-FRET); format: biochemical; conditions: 10 μM ATP; compounds of the invention
Sequence of human FGFR-3 (P22607 397-806): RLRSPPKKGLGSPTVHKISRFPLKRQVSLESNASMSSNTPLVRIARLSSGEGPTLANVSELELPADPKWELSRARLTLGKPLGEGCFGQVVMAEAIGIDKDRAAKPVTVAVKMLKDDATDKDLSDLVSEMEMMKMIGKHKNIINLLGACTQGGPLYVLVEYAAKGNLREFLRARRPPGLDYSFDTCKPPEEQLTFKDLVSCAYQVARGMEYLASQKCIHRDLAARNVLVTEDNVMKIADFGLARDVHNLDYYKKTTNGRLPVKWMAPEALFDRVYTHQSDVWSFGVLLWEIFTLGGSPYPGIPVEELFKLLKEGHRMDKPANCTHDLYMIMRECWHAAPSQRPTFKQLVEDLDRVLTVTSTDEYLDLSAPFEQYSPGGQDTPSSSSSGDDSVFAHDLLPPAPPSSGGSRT

human mTOR = human mTOR (Homo sapiens (Human), UniProt P42345); test: mTOR kinase assay (TR-FRET, for comparative purposes); format: biochemical; conditions: for inhibition at 1 µM: read-out: mTOR % inhibition @ 1 μM
Sequence of human mTOR (P42345 1360-2549): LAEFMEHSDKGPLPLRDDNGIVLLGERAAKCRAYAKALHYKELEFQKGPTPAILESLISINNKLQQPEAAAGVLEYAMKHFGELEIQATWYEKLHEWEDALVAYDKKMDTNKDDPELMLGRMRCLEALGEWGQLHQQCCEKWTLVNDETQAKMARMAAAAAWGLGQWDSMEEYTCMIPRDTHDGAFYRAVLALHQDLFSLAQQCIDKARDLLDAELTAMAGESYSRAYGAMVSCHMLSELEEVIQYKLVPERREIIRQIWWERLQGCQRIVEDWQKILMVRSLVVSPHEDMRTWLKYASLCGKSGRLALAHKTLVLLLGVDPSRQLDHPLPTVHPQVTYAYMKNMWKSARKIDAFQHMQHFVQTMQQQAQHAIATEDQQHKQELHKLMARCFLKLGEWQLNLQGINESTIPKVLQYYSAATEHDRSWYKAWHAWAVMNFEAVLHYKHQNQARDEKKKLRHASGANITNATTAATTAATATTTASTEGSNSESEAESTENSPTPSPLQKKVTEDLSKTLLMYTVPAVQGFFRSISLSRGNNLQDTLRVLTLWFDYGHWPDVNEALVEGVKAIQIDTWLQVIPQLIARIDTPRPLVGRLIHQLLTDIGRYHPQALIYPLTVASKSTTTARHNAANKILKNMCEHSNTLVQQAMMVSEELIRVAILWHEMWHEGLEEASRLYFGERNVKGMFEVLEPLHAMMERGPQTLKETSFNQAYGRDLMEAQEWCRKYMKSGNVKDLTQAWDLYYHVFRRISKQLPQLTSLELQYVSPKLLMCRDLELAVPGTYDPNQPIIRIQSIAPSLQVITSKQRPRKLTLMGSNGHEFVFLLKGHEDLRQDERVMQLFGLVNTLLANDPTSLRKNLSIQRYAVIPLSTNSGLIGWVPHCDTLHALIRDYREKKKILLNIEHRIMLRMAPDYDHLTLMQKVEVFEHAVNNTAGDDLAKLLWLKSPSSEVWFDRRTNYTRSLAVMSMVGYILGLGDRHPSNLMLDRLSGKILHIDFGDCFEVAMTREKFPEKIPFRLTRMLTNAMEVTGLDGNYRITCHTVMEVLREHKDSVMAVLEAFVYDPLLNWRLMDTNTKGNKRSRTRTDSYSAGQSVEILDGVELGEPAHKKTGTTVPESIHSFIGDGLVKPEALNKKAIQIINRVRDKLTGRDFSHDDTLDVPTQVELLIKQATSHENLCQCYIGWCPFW
Text: mTOR inhibitory activity of the compounds of the present invention was quantified employing the TR-FRET based mTOR assay as described in the following paragraphs: Recombinant fusion tagged mTOR protein [glutathione-S-transferase (GST) fused to human mTOR amino acids from 1360 to 2549], expressed in insect cells and purified by glutathione-sepharose affinity chromatography, was purchased from Invitrogen (Cat.-No. 4753) and used as enzyme. As substrate for the kinase reaction, a recombinant fusion protein of GFP and 4E-BP1 (purchased from Invitrogen, Cat.-No. PV4759) was used. Test compounds were dissolved in DMSO to generate 10 mM stock solutions. […] The resulting mixture was incubated for 1 h at 22° C. to allow formation of the complex between the phosphorylated substrate and the Tb-chelate labelled antibody. Subsequently, the amount of phosphorylated substrate was evaluated by measurement of the resonance energy transfer from the Tb-chelate to the GFP. For this, the fluorescence emissions at 495 nm and 520 nm after excitation at 340 nm was measured in an Envision 2104 multilabel reader (Perkin-Elmer). The ratio of the emissions at 520 nm and at 495 nm was taken as the measure for the amount of phosphorylated substrate.

[1] = 1 μM test compound, mean inhibition values

What does the source list for `COc1cc(C)cc2cc(-c3c(CN4CCN(C(C)=O)CC4)cn4ncnc(N)c34)sc12` [Example 21, 1-(4-{[4-Amino-5-(7-methoxy-5-methyl-1-benzothiophen-2-yl)pyrrolo[2,1-f][1,2,4]triazin-6-yl]-methyl}piperazin-1-yl)ethanone]?
pIC50 (human FGFR-3): 7.55; mTOR % inhibition @ 1 μM (human mTOR; [1]): no inhib. effect detect.

`CNC(=O)CNCc1cn2ncnc(N)c2c1-c1cc2cc(C)cc(OC)c2s1` [Example 13, N^2-{[4-Amino-5-(7-methoxy-5-methyl-1-benzothiophen-2-yl)pyrrolo[2,1-f][1,2,4]triazin-6-yl]-methyl}-N-methylglycinamide] was tested. Which pIC50 (human FGFR-3) did it give?
Its pIC50 is 7.82.

And the inhibition at 1 µM (human mTOR; [1])?
The inhibition at 1 µM was 5.3%.

How did the pIC50 (human FGFR-3) turn out when `COc1cc(C)cc2cc(-c3c(CN4CCNCC4)cn4ncnc(N)c34)sc12` [Example 25, 5-(7-Methoxy-5-methyl-1-benzothiophen-2-yl)-6-(piperazin-1-ylmethyl)pyrrolo[2,1-f][1,2,4]triazin-4-amine trihydrochloride] was run?
The pIC50 was 9.40.

What about the “mTOR % inhibition @ 1 μM” value (human mTOR; [1]) of the same compound?
The value was “no inhib. effect detect”.

`COc1cc(C)cc2cc(-c3c(COCCCO)cn4ncnc(N)c34)sc12` [Example 1, 3-{[4-Amino-5-(7-methoxy-5-methyl-1-benzothiophen-2-yl)pyrrolo[2,1-f][1,2,4]triazin-6-yl]-methoxy}propan-1-ol hydrochloride] was tested. Which pIC50 (human FGFR-3) did it give?
The pIC50 was 7.74.

What about the inhibition at 1 µM (human mTOR) of the same compound?
Its inhibition at 1 µM is 1.9%.

What does the source list for `COc1cc(C)cc2cc(-c3c(CNCC(C)(C)O)cn4ncnc(N)c34)sc12` [Example 17, 1-({[4-Amino-5-(7-methoxy-5-methyl-1-benzothiophen-2-yl)pyrrolo[2,1-f][1,2,4]triazin-6-yl]-methyl}amino)-2-methylpropan-2-ol dihydrochloride]?
pIC50 (human FGFR-3): 8.74; mTOR % inhibition @ 1 μM (human mTOR; [1]): no inhib. effect detect.

How did the pIC50 (human FGFR-3) turn out when `COc1cc(C)cc2cc(-c3c(CNCCO)cn4ncnc(N)c34)sc12` [Example 10, 2-({[4-Amino-5-(7-methoxy-5-methyl-1-benzothiophen-2-yl)pyrrolo[2,1-f][1,2,4]triazin-6-yl]-methyl}amino)ethanol dihydrochloride] was run?
The pIC50 was 8.85.

What about the inhibition at 1 µM (human mTOR) of the same compound?
Its inhibition at 1 µM is 10.3%.

With `COc1cc(C)cc2cc(-c3c(CNCC(N)=O)cn4ncnc(N)c34)sc12` [Example 16, N^2-{[4-Amino-5-(7-methoxy-5-methyl-1-benzothiophen-2-yl)pyrrolo[2,1-f][1,2,4]triazin-6-yl]-methyl}glycinamide] as the compound, how does the pIC50 (human FGFR-3) read?
The pIC50 was 8.64.

What about the inhibition at 1 µM (human mTOR; [1]) of the same compound?
Its inhibition at 1 µM is 8.8%.

With `COc1cc(C)cc2cc(-c3c(COCC(=O)O)cn4ncnc(N)c34)sc12` [Example 5, {[4-Amino-5-(7-methoxy-5-methyl-1-benzothiophen-2-yl)pyrrolo[2,1-f][1,2,4]triazin-6-yl]-methoxy}acetic acid] as the compound, how does the pIC50 (human FGFR-3) read?
Its pIC50 is 7.14.

And the inhibition at 1 µM (human mTOR; [1])?
The inhibition at 1 µM was 2.7%.

`COc1cc(C)cc2cc(-c3c(COCC(N)=O)cn4ncnc(N)c34)sc12` [Example 6, 2-{[4-Amino-5-(7-methoxy-5-methyl-1-benzothiophen-2-yl)pyrrolo[2,1-f][1,2,4]triazin-6-yl]-methoxy}acetamide] was tested. Which pIC50 (human FGFR-3) did it give?
Its pIC50 is 8.36.

And the inhibition at 1 µM (human mTOR; [1])?
Its inhibition at 1 µM is 11.3%.

How did the pIC50 (human FGFR-3) turn out when `COc1cc(C)cc2cc(-c3c(CN4CCOCC4)cn4ncnc(N)c34)sc12` [Example 23, 5-(7-Methoxy-5-methyl-1-benzothiophen-2-yl)-6-(morpholin-4-ylmethyl)pyrrolo[2,1-f][1,2,4]triazin-4-amine] was run?
Its pIC50 is 7.76.

And the inhibition at 1 µM (human mTOR; [1])?
Its inhibition at 1 µM is 2%.

How did the pIC50 (human FGFR-3) turn out when `COc1cc(C)cc2cc(-c3c(CO[C@@H](C)CO)cn4ncnc(N)c34)sc12` [Example 3, (2S)-2-{[4-Amino-5-(7-methoxy-5-methyl-1-benzothiophen-2-yl)pyrrolo[2,1-f][1,2,4]triazin-6-yl]-methoxy}propan-1-ol] was run?
The pIC50 was 8.38.

What about the inhibition at 1 µM (human mTOR; [1]) of the same compound?
Its inhibition at 1 µM is 2.5%.

Which results are given for `COc1cc(C)cc2cc(-c3c(CNC(C)C(N)=O)cn4ncnc(N)c34)sc12` (racemic) [Example 12, rac-N^2-{[4-Amino-5-(7-methoxy-5-methyl-1-benzothiophen-2-yl)pyrrolo[2,1-f][1,2,4]triazin-6-yl]-methyl}alaninamide]?
pIC50 (human FGFR-3): 7.94; inhibition at 1 µM (human mTOR; [1]): 7.2%
